Data taken from PMC9026008 (ACS Omega, 2022).
Substitutions are numbered along the chain they refer to.

B1: human CGI-58 (Comparative Gene Identification-58) wild-type protein (natural protein, UniProt Q8WTS1 1-349, looked up)
chain: MAAEEEEVDSADTGERSGWLTGWLPTWCPTSISHLKEAEEKMLKCVPCTYKKEPVRISNGNKIWTLKFSHNISNKTPLVLLHGFGGGLGLWALNFGDLCTNRPVYAFDLLGFGRSSRPRFDSDAEEVENQFVESIEEWRCALGLDKMILLGHNLGGFLAAAYSLKYPSRVNHLILVEPWGFPERPDLADQDRPIPVWIRALGAALTPFNPLAGLRIAGPFGLSLVQRLRPDFKRKYSSMFEDDTVTEYIYHCNVQTPSGETAFKNMTIPYGWAKRPMLQRIGKMHPDIPVSVIFGARSCIDGNSGTSIQSLRPHSYVKTIAILGAGHYVYADQPEEFNQKVKEICDTVD

Tests used:
CGI-58 = target: T1, CGI-58 (Homo sapiens, UniProt Q8WTS1, S237E/W19A/W23A/W27A); assay: intrinsic tryptophan fluorescence quenching, […] protein, […] °C; format: binding
T1 sequence (Q8WTS1 1-349 W19A/W23A/W27A/S237E): B1 chain with W19A, W23A, W27A, S237E

SEC = target: the molecule itself; assay: SEC

| Molecule | Kd (CGI-58) [µM] | binding result (SEC) |
| --- | --- | --- |
| CCCCCCCC/C=C\CCCCCCCC(=O)SCCNC(=O)CCNC(=O)[C@H](O)C(C)(C)COP(=O)(O)OP(=O)(O)OC[C@H]1O[C@@H](n2cnc3c(N)ncnc32)[C@H](O)[C@@H]1OP(=O)(O)O [oleoyl-CoA] | 2.3 ± 0.3 |  |
| B1 |  | binds |
